These results are taken from patent US20120129842A1, “BISTHIAZOLE INHIBITORS OF PRO-MATRIX METALLOPROTEINASE ACTIVATION” (priority 2010, published 2012).

By Kd is commonly meant the constant that tells how readily two partners part at equilibrium. What is called IC50 is the concentration at which inhibition is half-maximal. A high value points to weaker potency in that assay.

For assay [1], the target named is T1, proMMP9(20-445;ΔFnII) (SEQ ID NO:6) (Homo sapiens, UniProt P14780, DEL216-390).
T1 construct: start methionine (N); made in house; host or cells: E. coli BL21(DE3) RIL
T1 sequence (P14780 with tags, fused parts or gaps DEL216-390): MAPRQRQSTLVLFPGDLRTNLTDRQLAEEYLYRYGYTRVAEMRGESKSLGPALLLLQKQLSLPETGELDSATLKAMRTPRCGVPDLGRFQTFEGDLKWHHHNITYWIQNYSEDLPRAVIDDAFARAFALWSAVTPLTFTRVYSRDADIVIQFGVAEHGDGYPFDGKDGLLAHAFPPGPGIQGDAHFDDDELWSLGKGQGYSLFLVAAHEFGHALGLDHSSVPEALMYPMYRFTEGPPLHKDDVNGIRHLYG
The assay can be described thus: ThermoFluor binding assay with proMMP9(20-445;ΔFnII). The conditions noted are these: pH 7.0. An outline of the steps:
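proMMP9(20-445;ΔFnII) at 2.8 μM with 50 μM 1,8-ANS in 50 mM HEPES pH 7.0, 100 mM NaCl, 0.001% Tween-20, 2.5 mM MgCl2, 300 μM CaCl2; compounds serially diluted in DMSO. Heated 40–90 °C at 1 °C/min, fluorescence read at 500±25 nm. Tm fit by standard equations; binding fit using DSC/TF-derived thermodynamic parameters.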
On the technique in general: Differential scanning fluorimetry follows unfolding on heating by fluorescence.

Assay [2] addresses T2, proMMP9(67-444;ΔFnII) (SEQ ID NO:5) (Homo sapiens, UniProt P14780, DEL216-390).
T2 construct: start methionine (N); made in house; host or cells: E. coli BL21(DE3) RIL
T2 sequence (P14780 with tags, fused parts or gaps DEL216-390): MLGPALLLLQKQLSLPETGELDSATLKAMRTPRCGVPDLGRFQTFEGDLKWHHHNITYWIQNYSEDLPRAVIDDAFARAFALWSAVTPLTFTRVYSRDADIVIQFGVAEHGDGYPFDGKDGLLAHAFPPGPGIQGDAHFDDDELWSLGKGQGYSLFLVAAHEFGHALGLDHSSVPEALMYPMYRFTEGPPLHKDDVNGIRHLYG
The assay can be described thus: ThermoFluor binding assay with proMMP9(67-444;ΔFnII). Particulars: pH 7.0. The gist of the method:
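Thermal shift binding with 3.5 μM proMMP9(67-444;ΔFnII) and 50 μM 1,8-ANS in 50 mM HEPES pH 7.0, 100 mM NaCl, 2.5 mM MgCl2, 300 μM CaCl2, 0.001% Tween-20, with serially diluted compound. Heated 40 to 90° C at 1° C/min; fluorescence-derived Tm fitted using DSC/ThermoFluor thermodynamic parameters.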

The target of assay [3] is T3, full-length proMMP9(1-707) (SEQ ID NO:1) (Homo sapiens, UniProt P14780, R574P).
T3 construct: made in house; host or cells: HEK293 (proMMP9, secreted); E. coli (MMP3)
As to the kind of experiment: proMMP9/MMP3 P126 Activation Assay. It counts as biochemical. The conditions noted are these: 20 nM proMMP9, 20 nM MMP3, 80 min 37° C. The procedure:
The reaction volume was 50 μL. […] Reactivity of residual MMP3 towards P-126 substrate was minimal under these conditions.

The target of assay [4] is proMMP13(1-268) (SEQ ID NO:7) (Homo sapiens, UniProt P45452). The assay can be described thus: ThermoFluor binding assay with proMMP13(1-268). The conditions noted are these: pH 7.0. Also on record: 6xHis (C); made in house. An outline of the steps: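 Thermal shift binding with 3.5 μM protein and 25 μM 1,8-ANS in 50 mM HEPES pH 7.0, 100 mM NaCl, 0.001% Tween-20, 2.5 mM MgCl2, 300 μM CaCl2. Samples were heated 40 to 90 °C at 1 °C/min, fluorescence read at 500 nm. Tm shifts across an 11-point DMSO dilution series were fitted with DSC-derived thermodynamic parameters.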

Where a name gives a salt, the structure may show the parent alone.

T3 sequence (P14780 20-707 R574P): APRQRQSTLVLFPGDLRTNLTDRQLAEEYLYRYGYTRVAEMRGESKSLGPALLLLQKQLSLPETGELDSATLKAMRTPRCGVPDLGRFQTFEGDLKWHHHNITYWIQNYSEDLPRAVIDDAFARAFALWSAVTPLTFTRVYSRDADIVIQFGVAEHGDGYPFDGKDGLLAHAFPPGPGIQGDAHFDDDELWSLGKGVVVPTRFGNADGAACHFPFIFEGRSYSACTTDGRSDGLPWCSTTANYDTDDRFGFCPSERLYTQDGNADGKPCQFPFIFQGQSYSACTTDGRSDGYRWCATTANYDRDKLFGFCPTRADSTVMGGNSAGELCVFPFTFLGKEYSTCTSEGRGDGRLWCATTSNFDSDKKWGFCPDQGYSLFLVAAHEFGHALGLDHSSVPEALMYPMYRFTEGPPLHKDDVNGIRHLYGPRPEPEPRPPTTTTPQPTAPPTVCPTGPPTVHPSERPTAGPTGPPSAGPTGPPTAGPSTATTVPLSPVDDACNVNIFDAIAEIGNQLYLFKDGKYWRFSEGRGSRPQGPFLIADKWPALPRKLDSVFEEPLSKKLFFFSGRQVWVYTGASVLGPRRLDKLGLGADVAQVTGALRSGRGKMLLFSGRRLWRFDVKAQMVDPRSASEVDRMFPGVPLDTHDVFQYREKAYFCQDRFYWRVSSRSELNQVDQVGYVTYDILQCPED

Take `Cc1nc(C(=O)N2CCN(c3ccc(C(F)(F)F)cn3)CC2)sc1-c1csc(Nc2cc(C(N)=O)ccc2OC(C)C)n1` [Example 109, 4-Isopropoxy-3-{4′-methyl-2′-[4-(5-trifluoromethyl-pyridin-2-yl)-piperazine-1-carbonyl]-[4,5′]bithiazolyl-2-ylamino}-benzamide.TFA]: the Kd in assay [1] is 3800 nM; in assay [2], greater than 95000 nM; in assay [4] it was greater than 95000 nM. Besides, the IC50 in assay [3] worked out at 5700 nM.

Take `Cc1nc(C(=O)N2CCC(N(C)C)CC2)sc1-c1csc(Nc2cc(C(N)=O)ccc2OC(C)C)n1` [Example 110, 3-[2′-(4-Dimethylamino-piperidine-1-carbonyl)-4′-methyl-[4,5]bithiazolyl-2-ylamino]-4-isopropoxy-benzamide.TFA]: the equilibrium dissociation constant (Kd) in assay [1] amounted to 130 nM; in assay [2], 480 nM; in assay [4], 690 nM. The same compound came in with an IC50 in assay [3] of 200 nM.

For `Cc1nc(C(=O)NC2CCN(C(C)C)CC2)sc1-c1csc(Nc2cc(C(N)=O)ccc2OC(C)C)n1` [Example 111, 2-(5-Carbamoyl-2-isopropoxy-phenylamino)-4′-methyl-[4,5′]bithiazolyl-2′-carboxylic acid (1-isopropyl-piperidin-4-yl)-amide.TFA], the Kd in assay [1] turned out to be 86 nM; in assay [2], 290 nM; in assay [4], 360 nM. Besides, inhibition in assay [3] was half-maximal at 81 nM (IC50).

Regarding `Cc1nc(C(=O)N2CCCN(C(C)C)CC2)sc1-c1csc(Nc2cc(C(N)=O)ccc2OC(C)C)n1` [Example 112, 4-Isopropoxy-3-[2′-(4-isopropyl-[1,4]diazepane-1-carbonyl)-4′-methyl-[4,5]bithiazolyl-2-ylamino]-benzamide.TFA], the Kd in assay [1] was 1400 nM; in assay [2], 2200 nM; in assay [4], greater than 57000 nM. Further, the IC50 in assay [3] came out at 520 nM.

As for `Cc1nc(C(=O)NC2CCN(C)CC2)sc1-c1csc(Nc2cc(C(N)=O)ccc2OC(C)C)n1` [Example 113, 2-(5-Carbamoyl-2-isopropoxy-phenylamino)-4′-methyl-[4,5′]bithiazolyl-2′-carboxylic acid (1-methyl-piperidin-4-yl)-amide.TFA], the Kd was 1500 nM in assay [1], 1900 nM in assay [2] and greater than 57000 nM in assay [4]. This compound also registered an IC50 in assay [3] of 570 nM.

For the compound `CCN1CCCN(C(=O)c2nc(C)c(-c3csc(Nc4cc(C(N)=O)ccc4OC(C)C)n3)s2)CC1` [Example 114, 3-[2′-(4-Ethyl-[1,4]diazepane-1-carbonyl)-4′-methyl-[4,5′]bithiazolyl-2-ylamino]-4-isopropoxy-benzamide.TFA], the Kd in assay [1] was determined as 690 nM; in assay [2], 960 nM; in assay [4], 1800 nM. In assay [3], the IC50 came out at 310 nM.

On to `CCOc1ccc(C(N)=O)cc1Nc1nc(-c2sc(C(=O)N3CCN(C)CC3)nc2C)cs1` [Example 115, 4-Ethoxy-3-[4′-methyl-2′-(4-methyl-piperazine-1-carbonyl)-[4,5′]bithiazolyl-2-ylamino]-benzamide.TFA], for which the Kd worked out at 2800 nM in assay [1], 3800 nM in assay [2] and 6400 nM in assay [4]. This compound yielded an IC50 in assay [3] of 880 nM.

Regarding `CCOc1ccc(C(N)=O)cc1Nc1nc(-c2sc(C(=O)N3CCCN(C(C)C)CC3)nc2C)cs1` [Example 116, 4-Ethoxy-3-[2′-(4-isopropyl-[1,4]diazepane-1-carbonyl)-4′-methyl-[4,5]bithiazolyl-2-ylamino]-benzamide.TFA], the values for the Kd in assay [1], in assay [2] and in assay [4] were 2700 nM, 1400 nM and 6700 nM, respectively. In assay [3], this compound yielded an IC50 of 500 nM.

For `CCOc1ccc(C(N)=O)cc1Nc1nc(-c2sc(C(=O)N3CCN(CC)CC3)nc2C)cs1` [Example 117, 4-Ethoxy-3-[2′-(4-ethyl-piperazine-1-carbonyl)-4′-methyl-[4,5]bithiazolyl-2-ylamino]-benzamide.TFA], the Kd in assay [1] came out at 680 nM; in assay [2], 2000 nM; in assay [4], 6900 nM. The same compound registered an IC50 in assay [3] of 670 nM.

For the compound `CCOc1ccc(C(N)=O)cc1Nc1nc(-c2sc(C(=O)N3CCN(C(C)C)CC3)nc2C)cs1` [Example 118, 4-Ethoxy-3-[2′-(4-isopropyl-piperazine-1-carbonyl)-4′-methyl-[4,5]bithiazolyl-2-ylamino]-benzamide.TFA], the Kd in assay [1] came to 640 nM; in assay [2] it was 1200 nM; in assay [4], 5500 nM. Further, in assay [3], the IC50 worked out at 1100 nM.

For `CCOc1ccc(C(N)=O)cc1Nc1nc(-c2sc(C(=O)N3CCCN(C)CC3)nc2C)cs1` [Example 119, 4-Ethoxy-3-[4′-methyl-2′-(4-methyl-[1,4]diazepane-1-carbonyl)-[4,5′]bithiazolyl-2-ylamino]-benzamide.TFA], the Kd was found to be 3300 nM in assay [1], 2200 nM in assay [2] and 6200 nM in assay [4]. For the same compound, the IC50 in assay [3] was found to be 520 nM.

With `CCOc1ccc(C(N)=O)cc1Nc1nc(-c2sc(C(=O)N3CCCN(CC)CC3)nc2C)cs1` [Example 120, 4-Ethoxy-3-[2′-(4-ethyl-[1,4]diazepane-1-carbonyl)-4′-methyl-[4,5]bithiazolyl-2-ylamino]-benzamide.TFA], the Kd stood at 2500 nM in assay [1], 1600 nM in assay [2] and 5600 nM in assay [4]. Moreover, it took 480 nM to reach half-maximal inhibition in assay [3] (IC50).

As for `CCOc1ccc(C(N)=O)cc1Nc1nc(-c2sc(C(=O)NC3CCN(C)CC3)nc2C)cs1` [Example 121, 2-(5-Carbamoyl-2-ethoxy-phenylamino)-4′-methyl-[4,5′]bithiazolyl-2′-carboxylic acid (1-methyl-piperidin-4-yl)-amide.TFA], the Kd in assay [1] worked out at 2400 nM; in assay [2], 1200 nM; in assay [4], 8700 nM. Moreover, the IC50 in assay [3] was found to be 370 nM.

As for `CCOc1ccc(C(N)=O)cc1Nc1nc(-c2sc(C(=O)NC3CCN(C(C)C)CC3)nc2C)cs1` [Example 122, 2-(5-Carbamoyl-2-ethoxy-phenylamino)-4′-methyl-[4,5′]bithiazolyl-2′-carboxylic acid (1-isopropyl-piperidin-4-yl)-amide.TFA], the Kd was found to be 830 nM in assay [1], 670 nM in assay [2] and 4900 nM in assay [4]. The same compound yielded an IC50 in assay [3] of 250 nM.

For `CCOc1ccc(C(N)=O)cc1Nc1nc(-c2sc(C(=O)N(C)CCN(C)C)nc2C)cs1` [Example 123, 2-(5-Carbamoyl-2-ethoxy-phenylamino)-4′-methyl-[4,5′]bithiazolyl-2′-carboxylic acid (2-dimethylamino-ethyl)-methyl-amide.TFA], the Kd is 280 nM in assay [1], 1000 nM in assay [2] and 1800 nM in assay [4]. The compound also came in with an IC50 in assay [3] of 440 nM.

With `Cc1nc(CN2CCOCC2)sc1-c1csc(Nc2cc(C(N)=O)ccc2OC(C)C)n1` [Example 124, 4-Isopropoxy-3-(4′-methyl-2′-morpholin-4-ylmethyl-[4,5′]bithiazolyl-2-ylamino)-benzamide.TFA], the values for the Kd in assay [1], in assay [2] and in assay [4] were 650 nM, 3700 nM and 6100 nM, respectively. Also, the IC50 in assay [3] was determined as 670 nM.

As to `Cc1nc(CN2CCN(C(C)C)CC2)sc1-c1csc(Nc2cc(C(N)=O)ccc2OC(C)C)n1` [Example 125, 4-Isopropoxy-3-[2′-(4-isopropyl-piperazin-1-ylmethyl)-4′-methyl-[4,5]bithiazolyl-2-ylamino]-benzamide.TFA], the Kd was found to be 580 nM in assay [1], 3200 nM in assay [2] and 4900 nM in assay [4]. In assay [3], the IC50 is 780 nM.
